Counter-ions that a name gives are not always drawn. Like-named read-outs stand apart in the source and are kept apart here.
Legend:
[1] = target: T1, EPH-B3 (Homo sapiens, UniProt P54753); assay: EPH-B3 protein kinase assay; type: biochemical; conditions: for remaining activity at 10 µM: 10 μM compound; for residual kinase activity EPH-B3: 1 μm compound; for remaining activity at 1 µM: 1 μM compound
T1 construct: All protein kinases were of human origin and encoded full length proteins, unless indicated otherwise; made in house
T1 sequence (P54753 34-998): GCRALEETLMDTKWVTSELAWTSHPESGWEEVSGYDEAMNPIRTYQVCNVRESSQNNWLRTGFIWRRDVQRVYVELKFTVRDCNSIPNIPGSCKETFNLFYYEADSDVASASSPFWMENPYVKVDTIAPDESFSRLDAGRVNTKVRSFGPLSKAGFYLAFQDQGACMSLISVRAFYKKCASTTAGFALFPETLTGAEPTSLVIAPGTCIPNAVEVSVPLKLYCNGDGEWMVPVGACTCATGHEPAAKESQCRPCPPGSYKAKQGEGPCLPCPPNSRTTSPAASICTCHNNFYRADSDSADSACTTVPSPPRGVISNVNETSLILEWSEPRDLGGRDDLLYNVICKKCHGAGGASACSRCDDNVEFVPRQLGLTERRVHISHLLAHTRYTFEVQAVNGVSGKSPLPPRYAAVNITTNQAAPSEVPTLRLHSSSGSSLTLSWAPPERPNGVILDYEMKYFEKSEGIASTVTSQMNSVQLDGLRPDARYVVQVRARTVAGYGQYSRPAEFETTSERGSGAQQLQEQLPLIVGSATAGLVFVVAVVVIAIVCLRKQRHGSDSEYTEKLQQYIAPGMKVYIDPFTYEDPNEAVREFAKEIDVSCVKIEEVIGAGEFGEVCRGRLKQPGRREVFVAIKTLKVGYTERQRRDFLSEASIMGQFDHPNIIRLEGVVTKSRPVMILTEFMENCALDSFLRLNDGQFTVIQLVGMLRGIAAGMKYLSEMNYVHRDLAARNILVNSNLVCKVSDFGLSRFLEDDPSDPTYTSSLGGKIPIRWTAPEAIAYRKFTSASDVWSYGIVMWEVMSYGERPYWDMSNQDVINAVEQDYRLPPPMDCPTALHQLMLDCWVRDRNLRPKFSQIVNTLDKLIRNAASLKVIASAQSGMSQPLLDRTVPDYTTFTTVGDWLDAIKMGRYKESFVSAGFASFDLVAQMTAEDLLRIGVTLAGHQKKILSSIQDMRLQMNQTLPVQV
Source text: (§1) All protein kinases were of human origin and encoded full length proteins, unless indicated otherwise. They were either expressed as glutathione S-transferase (GST) fusion proteins in Escherichia Coli or as hexahistidine (His6)-tagged proteins in insect Sf21 cells. GST fusion proteins were purified by affinity chromatography on glutathione-Sepharose, and His6-tagged proteins on nickel/nitriloacetate-agarose. The procedures for expressing some of the protein kinases used herein have been detailed previously.^8,9 The following sections outline the DNA vectors synthesised and the procedures used to express and purifying protein kinases that have not been reported previously.
(§2) All assays (25.5 μl) were carried out at room temperature (21° C.) and were linear with respect to time and enzyme concentration under the conditions used. Assays were performed for 30 min using Multidrop Micro reagent dispensers (Thermo Electron Corporation, Waltham, Mass. 02454, USA) in a 96-well format. The concentration of magnesium acetate in the assays was 10 mM and the [γ-33P] ATP (800 cpm/pmol) was used at 5, 20 or 50 μM as indicated, in order to be at or below the Km for ATP for each enzyme. Protein kinases assayed at 5 μM ATP were: —ERK1, ERK8, PKBα, MARK3, Aurora C. Protein kinases assayed at 20 μM ATP were: —JNK1, PDK1, CHK1, CHK2, CDK2 and Aurora B. Protein kinases assayed at 50 μM ATP were: —MNK2, IKKepsilon and TBK1.
(§3) The assays were initiated with MgATP, stopped by addition of 5 μl of 0.5 M orthophosphoric acid and spotted on to P81 filterplates using a unifilter harvester (PerkinElmer, Boston, Mass. 02118, USA). The IC50 values of inhibitors were determined after carrying out assays at 10 different concentrations of each compound.
(§4) Unless stated otherwise, enzymes were diluted in 50 mM Tris/HCl pH 7.5, 0.1 mM EGTA, 1 mg/ml BSA, 0.1% (v/v) 2-mercaptoethanol and assayed in 50 mM Tris/HCl pH 7.5, 0.1 mM EGTA, 0.1% (v/v) 2-mercaptoethanol.

[2] = target: T2, IKKe (Homo sapiens, UniProt Q14164); assay: IKKe protein kinase assay; type: biochemical; conditions: for remaining activity at 10 µM: 10 μM compound; for residual kinase activity IKKe: 1 μm compound; for remaining activity at 1 µM: 1 μM compound
T2 construct: All protein kinases were of human origin and encoded full length proteins, unless indicated otherwise; His6; made in house; host or cells: insect Sf21 cells
T2 sequence (Q14164 1-716): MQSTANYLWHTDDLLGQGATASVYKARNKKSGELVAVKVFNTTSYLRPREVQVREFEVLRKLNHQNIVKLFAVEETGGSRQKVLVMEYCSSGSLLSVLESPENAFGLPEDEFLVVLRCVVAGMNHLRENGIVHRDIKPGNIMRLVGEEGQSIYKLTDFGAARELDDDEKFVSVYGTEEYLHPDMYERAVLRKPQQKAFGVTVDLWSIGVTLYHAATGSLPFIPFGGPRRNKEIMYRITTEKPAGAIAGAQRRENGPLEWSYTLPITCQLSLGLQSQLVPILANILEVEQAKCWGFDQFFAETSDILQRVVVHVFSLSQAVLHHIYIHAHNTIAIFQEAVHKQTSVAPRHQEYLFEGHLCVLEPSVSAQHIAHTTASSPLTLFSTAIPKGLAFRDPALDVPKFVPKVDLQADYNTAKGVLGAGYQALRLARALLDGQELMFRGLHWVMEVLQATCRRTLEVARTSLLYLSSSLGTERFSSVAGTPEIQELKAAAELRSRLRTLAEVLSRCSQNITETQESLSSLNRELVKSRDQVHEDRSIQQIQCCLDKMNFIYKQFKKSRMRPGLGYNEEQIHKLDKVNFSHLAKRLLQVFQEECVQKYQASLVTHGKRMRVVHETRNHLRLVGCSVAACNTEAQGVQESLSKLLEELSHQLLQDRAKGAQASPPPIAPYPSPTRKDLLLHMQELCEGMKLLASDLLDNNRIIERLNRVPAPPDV
Source text: as §1
The following kinases were expressed in Sf21 cells: Aurora B and Aurora C, extra-cellular signal-regulated kinase 8 (ERK8), microtubule affinity regulating kinase 3 (MARK3), protein kinase Bα[118-480][S473D], protein kinase Bβ (PKBβ[120-481][S474D], 3-phosphoinositide-dependent protein kinase-1 [52-556]
as §2, §3, §4

[3] = read-out: residual kinase activity EPH-B3
[4] = read-out: residual kinase activity IKKe
[5] = EPH-B3, read-out: residual kinase activity
[6] = IKKe, 50 μM ATP, read-out: residual kinase activity

SMILES	remaining activity at 10 µM [1, 3]	residual kinase activity EPH-B3 [1]	remaining activity at 10 µM [2, 4]	residual kinase activity IKKe [2]	remaining activity at 1 µM [1, 5]	remaining activity at 10 µM [1, 5]	remaining activity at 1 µM [2, 6]	remaining activity at 10 µM [2, 6]
O=C(NCCCNc1nc(Nc2cccc(F)c2)ncc1Br)C1CCC1 [Compound A, cyclobutanecarboxylic acid {3-[5-bromo-2-(3-fluoro-phenylamino)-pyrimidin-4-ylamino]-propyl}-amide, reference compound]	69%	92%	3%	13%	–	–	–	–
O=C(NCCCNc1nc(Nc2cccc(F)c2)ncc1C1CC1)C1CCC1 [Example 23, Cyclobutanecarboxylic acid {3-[5-cyclopropyl-2-(3-fluoro-phenylamino)-pyrimidin-4-ylamino]-propyl}-amide]	95%	120%	5%	15%	120%	95%	15%	5%
O=C(NCCCNc1nc(Nc2cccc(N3CCCC3=O)c2)ncc1C1CC1)c1cccs1 [Example 47, Thiophene-2-carboxylic acid (3-{5-cyclopropyl-2-[3-(2-oxo-pyrrolidin-1-yl)-phenylamino]-pyrimidin-4-ylamino}-propyl)-amide. Hydrochloride salt]	–	–	–	–	48%	93%	14%	6%
O=C(NCCCNc1nc(Nc2cccnc2)ncc1C1CC1)c1cccs1 [Example 50, Thiophene-2-carboxylic acid {3-[5-cyclopropyl-2-(pyridin-3-ylamino)-pyrimidin-4-ylamino]-propyl}-amide]	–	–	–	–	100%	97%	28%	7%

Source: patent publication US20100056524A1, “Compound” (priority 2008, published 2010)
